# Test results as given in publication PMC6368574, “Probing the Inhibition of Microtubule Affinity Regulating Kinase 4 by N-Substituted Acridones” (Scientific Reports, 2019).
# pIC50: −log10 of the molar value. Like-named read-outs stand apart in the source and are kept apart here.
# Key:
# [1] = target: T1, recombinant MARK4 (Homo sapiens, UniProt Q96L34); experiment: ATPase enzyme inhibition assay (Malachite Green); format: biochemical; details: for MARK4 inhibition, comparison in words / pIC50: ATPase inhibition; for IC50: Table S3, read-out: IC50, (µM), for MARK4 Inhibition; for pIC50: 20 µM ATP, read-out: IC50 against MARK4
# T1 construct: made in house; host or cells: bacterial cells (Luria-Bertani broth, IPTG induction)
# T1 sequence (Q96L34 1-752): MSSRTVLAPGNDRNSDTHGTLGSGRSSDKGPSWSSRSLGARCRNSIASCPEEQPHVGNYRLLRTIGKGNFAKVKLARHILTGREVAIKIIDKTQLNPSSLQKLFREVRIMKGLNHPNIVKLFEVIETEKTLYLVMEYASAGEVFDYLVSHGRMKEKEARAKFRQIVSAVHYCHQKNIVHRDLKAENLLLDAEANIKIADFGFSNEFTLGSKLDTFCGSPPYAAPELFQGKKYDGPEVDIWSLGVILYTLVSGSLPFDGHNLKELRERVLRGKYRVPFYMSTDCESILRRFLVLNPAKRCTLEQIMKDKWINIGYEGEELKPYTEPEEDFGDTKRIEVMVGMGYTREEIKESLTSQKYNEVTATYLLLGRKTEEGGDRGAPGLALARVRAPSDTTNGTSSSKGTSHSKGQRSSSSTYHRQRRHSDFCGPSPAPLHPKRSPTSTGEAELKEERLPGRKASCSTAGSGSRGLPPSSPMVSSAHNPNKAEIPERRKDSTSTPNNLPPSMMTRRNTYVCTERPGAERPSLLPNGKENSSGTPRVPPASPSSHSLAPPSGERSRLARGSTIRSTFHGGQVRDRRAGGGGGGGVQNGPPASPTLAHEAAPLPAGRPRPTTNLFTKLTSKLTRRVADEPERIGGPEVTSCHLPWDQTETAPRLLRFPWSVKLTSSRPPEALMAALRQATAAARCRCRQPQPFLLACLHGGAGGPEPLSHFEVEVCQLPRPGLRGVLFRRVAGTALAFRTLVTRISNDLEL
# Method: To evaluate the inhibition activity of synthesized acridone derivatives against recombinant MARK4, ATPase enzyme inhibition assay was performed (Table S3). […] Our studies were initiated by replacing the ester group of 5 with sterically and electronically diverse amines affording the corresponding amides 7a–j, in order to establish favorable interactions with residues Ala135, Val70, Asp196 and/or Glu182. […] In this case, the docking studies indicate a better fit of 7h compared with 7g in the active site of MARK4 with a binding energy of −9.5 kcal/mol and a stronger predicted hydrogen bond with Ala135 (3.06 Å for 7h, 3.19 Å for 7g).
# Enzyme activity of MARK4 was evaluated with the help of standard Malachite Green (Biomol Green reagent, Enzo Life Sciences) microtitre-plate assay as described earlier. Estimated amount of MARK4 (200 ng) and 20 µM ATP as a substrate were incubated for 10–15 min at 25 °C with increasing concentrations (0–20 µM) of synthesized acridone derivatives, in 20 mM Tris buffer, pH 8.0. Reaction was terminated by the adding 100 µl of Biomol Green reagent and absorbance of final reaction products was recorded at 620 nm in a multiplate ELSIA reader (BioRad). In order to quantify the hydrolyzed phosphate, inorganic phosphate standard curve were prepared from the phosphate standard solutions as supplied by the manufacturer (Biomol Green reagent, Enzo Life Sciences). All data points represent triplicate measurements from at least three independent experiments.
# [2] = target: T1, recombinant MARK4; experiment: Fluorescence binding (quenching, modified Stern-Volmer); details: Table S3; fluorescence binding; read-out: Binding affinity (Ka) (converted)
# Method: To determine the binding affinities of the synthesized acridones with MARK4, we used fluorescence emission spectra measurements. Protein sample was excited at 280 nm and emission was measured in 300–400 nm range with increasing concentrations of each acridone derivative (0–100 µM). A significant decrease in fluorescence intensity of MARK4 with increasing concentrations of each compound was fitted in the modified Stern-Volmer equation to calculate the binding constant, Ka and the number of binding sites per protein molecule (n). All the synthesized acridones have been screened (Supplementary Fig. S6, S7 and Table S3) and those with the highest affinity have been selected (compounds 5, 7b, 7d, 7f and 7h) for further evaluation (Fig. 3). The binding constants of compound 5, 7b, 7d, 7f and 7h were estimated as 6.3 × 10^4 M^−1, 1.0 × 10^6 M^−1, 1.0 × 10^6 M^−1, 1.9 × 10^6 M^−1, and 3.1 × 10^5 M^−1, respectively (Fig. 3).
# Figure 3 Fluorescence binding studies of compound 5, 7b, 7d, 7f and 7h with MARK4. (A) Fluorescence emission spectra of MARK4 (10 µM) with increasing concentrations of the respective compound (5, 7b, 7d, 7f and 7h). Excitation wavelength was fixed at 280 nm and emission was recorded in 300–400 nm range. (B) Modified Stern-Volmer plot obtained from fluorescence quenching of MARK4 by compound 5, 7b, 7d, 7f and 7h, respectively. It was used to calculate binding affinity (Ka) and number of binding sites (n).
# Binding affinities of synthesized acridone derivatives with recombinant MARK4 was carried out by observing the fluorescence intensity change of emission spectrum of MARK4 by following our previously published protocol[44],[45]. Each titration of protein was performed in triplicates and the average was taken for analysis. A significant decreased in fluorescence intensity of protein with increase in the concentration of acridone derivatives were used as the criteria for deducing the binding constant (Ka) as well as number of binding sites (n) present on the protein molecule using the modified Stern-Volmer equation[46]:1 log(Fo−F)/F=logKa+nlog[L] where, Fo = Fluorescence intensity of native protein, F = Fluorescence intensity of protein in the presence of ligand, Ka = Binding constant, n = number of binding sites, L = concentration of ligand. The values for Ka and n were derived from the intercept and slope, respectively.
# [3] = test system: HEK293 cells; experiment: MTT cell viability assay, HEK293; format: cell-based; details: Homo sapiens, Table S2
# Method: (§1) Initially, all synthesized acridone derivatives were evaluated for their cytotoxicity potential on MCF-7, HepG2 and HEK293 cell lines by MTT assay. These synthesized acridone derivatives were screened in the concentration range of 0–200 µM, for 24 and 48 h. […] It was also interesting that in the studied […] concentration range these compounds don’t show considerable cytotoxicity towards HEK293 cell lines. […] Thus, compounds 5, 7b, 7d, 7f and 7h were taken for further cell based studies such as apoptosis and reactive oxygen species (ROS) production.
# (§2) To study the effect of synthesized acridone derivatives on cell viability and proliferation, a standard MTT method was carried out. Cells were plated (8000–9000/well) in a 96-well plate and incubated overnight. On the next day, cells were treated with increasing concentrations (0.1–80 μM) of synthesized acridone derivatives in a final volume of 200 µl for 48 h at 37 °C in a humidified chamber. At the end of treatment time point, 20 µl of MTT solution (from 5 mg/ml stock solution in phosphate buffer saline, pH 7.4) was added to each well and incubated further for 4–5 h at 37 °C in the CO2 incubator. After stipulated time the supernatant was aspirated and the colored formazan crystal produced as a result of MTT reduction was dissolved in 100 µl of DMSO. The absorbance (A) of colored product was then measured at 570 nm on a multiplate ELISA reader (BioRad). The percentage of viable cells was calculated and used to estimate the IC50 (50% inhibitory concentration) values for each acridone derivative. For cell proliferation studies paclitaxel has been taken as positive control.
# [4] = test system: HepG2 cells; experiment: MTT cell viability assay, HepG2; format: cell-based; details: Homo sapiens, Table S2
# Method: as §1, §2
# [5] = test system: MCF-7 cells; experiment: MTT cell viability assay, MCF-7; format: cell-based; details: Homo sapiens, MCF7; Table S2; MTT; read-out: IC50 (µM) MCF-7
# Method: as §1, §2
# [6] = test system: MARK2; design: method as in PMID 21984823; details: cited from earlier work
structure (smiles),measurement,setting,value
"Cc1ccc2c(c1)c(=O)c1ccccc1n2CC(=O)N(C)Cc1ccccc1 [Compound 7c, N-benzyl-N-methyl-2-(2-methyl-9-oxoacridin-10(9 H)-yl)acetamide]","MARK4 inhibition, comparison in words",[1],much weaker inhibitor
same,IC50,[1],> 20 µM
same,melting point,,131 to 141 °C
same,Kd,[2],501 µM
same,IC50,[3],> 200 µM
same,IC50,[4],19.4 µM
same,IC50,[5],11.9 µM
COc1ccc2c(c1)c(=O)c1ccccc1n2CC(=O)Nc1cccc(C(F)(F)F)c1 [Compound 30019],pIC50,[6],> 5.00
"Cc1ccc2c(c1)c(=O)c1ccccc1n2CC(=O)N1CCOCC1 [Compound 7a, 2-Methyl-10-(2-morpholino-2-oxoethyl)acridin-9(10H)-one]",IC50,[1],> 20 µM
same,Kd,[2],501 µM
same,IC50,[3],> 200 µM
same,IC50,[4],24.3 µM
same,IC50,[5],12.3 µM
"COc1ccc(NC(=O)Cn2c3ccccc3c(=O)c3cc(C)ccc32)cc1 [Compound 7g, N-(4-methoxyphenyl)-2-(2-methyl-9-oxoacridin-10(9H)-yl)acetamide]",pIC50,[1],< 4.70
same,IC50,[1],> 20 µM
same,melting point,,282 to 286 °C
same,Kd,[2],158 µM
same,IC50,[3],> 200 µM
same,IC50,[4],21.2 µM
same,IC50,[5],14.3 µM
N#Cc1ccc(NC(=O)Cn2c3ccccc3c(=O)c3ccccc32)cc1 [Compound 30197],pIC50,[6],> 5.00
"CC(=O)c1ccc(NC(=O)Cn2c3ccccc3c(=O)c3cc(C)ccc32)cc1 [Compound 7j, N-(4-acetylphenyl)-2-(2-methyl-9-oxoacridin-10(9H)-yl)acetamide]",pIC50,[1],< 4.70
same,melting point,,306 to 309 °C
same,Kd,[2],501 µM
same,IC50,[3],> 200 µM
same,IC50,[4],24.4 µM
same,IC50,[5],16.3 µM
"Cc1ccc2c(c1)c(=O)c1ccccc1n2CC(=O)Nc1ccccc1 [Compound 7e, 2-(2-Methyl-9-oxoacridin-10(9H)-yl)-N-phenylacetamide]","MARK4 inhibition, comparison in words",[1],less potent than 7b
same,IC50,[1],> 20 µM
same,melting point,,290 to 293 °C
same,Kd,[2],1580 µM
same,IC50,[3],> 200 µM
same,IC50,[4],23.8 µM
same,IC50,[5],13.8 µM
O=C(Cn1c2ccccc2c(=O)c2ccccc21)Oc1ccccc1F [Compound 30195],pIC50,[6],> 5.00
"COC(=O)c1ccc(NC(=O)Cn2c3ccccc3c(=O)c3cc(C)ccc32)cc1 [Compound 7i, Methyl 4-(2-(2-methyl-9-oxoacridin-10(9H)-yl)acetamido)benzoate]",pIC50,[1],< 4.70
same,Kd,[2],1580 µM
same,IC50,[3],> 200 µM
same,IC50,[4],25.1 µM
same,IC50,[5],14.1 µM
CCOC(=O)c1cnc(NC(=O)Cn2c3ccccc3c(=O)c3ccccc32)s1 [Compound 30199],pIC50,[6],> 5.00
